For the experiment, the target named is T1, GK (glucokinase, residues 12-465) (Homo sapiens, UniProt P35557).
T1 construct: I.D. No. 1 corresponds to residues 12-465 of glucokinase; made in house; host or cells: DH10b-T1r E. coli
T1 sequence (P35557 with tags, fused parts or gaps isoform P35557-2): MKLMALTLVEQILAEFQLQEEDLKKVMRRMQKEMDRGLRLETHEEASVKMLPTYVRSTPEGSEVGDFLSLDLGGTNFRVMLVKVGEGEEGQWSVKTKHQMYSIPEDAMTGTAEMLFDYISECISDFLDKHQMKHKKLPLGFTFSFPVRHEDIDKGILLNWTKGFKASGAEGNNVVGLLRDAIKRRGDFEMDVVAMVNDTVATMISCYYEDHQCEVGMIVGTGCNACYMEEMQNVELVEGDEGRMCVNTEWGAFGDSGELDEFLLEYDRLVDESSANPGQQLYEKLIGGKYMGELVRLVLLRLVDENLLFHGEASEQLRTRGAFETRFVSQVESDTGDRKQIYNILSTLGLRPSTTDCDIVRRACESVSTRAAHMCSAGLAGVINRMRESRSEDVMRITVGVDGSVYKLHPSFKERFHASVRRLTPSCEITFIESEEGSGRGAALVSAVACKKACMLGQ
Kind of experiment: enzymatic glucokinase activity assay (ATP consumption, KinaseGlo luminescence). The format is biochemical. Conditions: 5 μM ATP, 5 mM Glucose, reported as bins; for EC50: Kact = concentration that displays 50% of the maximal increase in GK activity, 60 min, room temperature, read-out: pKact. The gist of the method:
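E. coli-expressed recombinant GK purified by two anion-exchange steps. Reaction in 25 mM Hepes pH 7.2, 10 mM MgCl2, 1 mM DTT, 5 μM ATP, 5 mM glucose, 2% DMSO, 60 min at room temperature. ATP consumption quantified by KinaseGlo luminescence; pKact and % ACTmax derived by non-linear curve fitting.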
A general note: Kinase-Glo reads ATP consumption through a luciferase reaction.

Where [1] appears, read: calculated maximal gain in GK enzyme activity at a saturating concentration of the compound, read-out: % ACTmax.
[2] abbreviates: read-out: % ACTmax, calculated maximal gain in GK enzyme activity at a saturating concentration of the compound.

Like-named read-outs stand apart in the source and are kept apart here.

Turning to `O=C(Nc1ncc(F)s1)[C@@H](CC1CCOCC1)n1ncc2c(S(=O)(=O)C3CC3)cc(O)cc21` [Compound 77, (R)-2-(4-(cyclopropylsulfonyl)-6-hydroxy-1H-indazol-1-yl)-N-(5-fluorothiazol-2-yl)-3-(tetrahydro-2H-pyran-4-yl)propanamide], the EC50 is ≥ 15.8 µM. Further, the Emax under setting [1] is 101 to 105%.

`O=C(Nc1ncc(Cl)s1)C(CC1CCOCC1)n1ncc2cc(S(=O)(=O)C3CC3)ccc21` (racemic) [Compound 10, N-(5-chlorothiazol-2-yl)-2-(5-(cyclopropylsulfonyl)-1H-indazol-1-yl)-3-(tetrahydro-2H-pyran-4-yl)propanamide]: the EC50 fell in the range of 1.58 to 3.16 µM. The Emax under setting [1] is ≥ 111%.

Turning to `O=C(Nc1cnccn1)[C@H](CC1CCOCC1)n1ncc2c(S(=O)(=O)C3CC3)cncc21` [Compound 171, (S)-2-(4-(cyclopropylsulfonyl)-1H-pyrazolo[3,4-c]pyridin-1-yl)-N-(pyrazin-2-yl)-3-(tetrahydro-2H-pyran-4-yl)propanamide], the EC50 was in the range of 1.58 to 3.16 µM. For the same compound, under setting [2], the Emax is 106 to 110%.

On to `O=C(Nc1ncc(F)s1)C(CC1CCOCC1)n1ncc2c(S(=O)(=O)C3CC3)c(F)ccc21` (stereo not drawn) [Compound 149, 2-(4-(cyclopropylsulfonyl)-5-fluoro-1H-indazol-1-yl)-N-(5-fluorothiazol-2-yl)-3-(tetrahydro-2H-pyran-4-yl)propanamide], for which the EC50 was ≤ 0.316 µM. Besides, the Emax under setting [1] is ≥ 111%.

Regarding `O=C(Nc1ncc(F)s1)[C@@H](CC1CCOCC1)n1cc(S(=O)(=O)C2CCCC2)cn1` (single isomer, unassigned) [Compound 37, 2-(4-(cyclopentylsulfonyl)-1H-pyrazol-1-yl)-N-(5-fluorothiazol-2-yl)-3-(tetrahydro-2H-pyran-4-yl)propanamide], the EC50 is 1.58 to 3.16 µM. Under setting [1], the Emax is ≥ 111%.

Turning to `Cn1ccc(NC(=O)C(CC2CCOCC2)n2ncc3c(S(=O)(=O)C4CC4)cncc32)n1` (stereo not drawn) [Compound 151, 2-(4-(cyclopropylsulfonyl)-1H-pyrazolo[3,4-c]pyridin-1-yl)-N-(1-methyl-1H-pyrazol-3-yl)-3-(tetrahydro-2H-pyran-4-yl)propanamide], the EC50 lay in the range of 1.58 to 3.16 µM. Moreover, the Emax under setting [1] was 90 to 100%.

For `O=C(Nc1ncc(Cl)s1)[C@@H](CC1CCOCC1)n1cc(S(=O)(=O)C2CC2)cn1` [Compound 40, (R)-N-(5-chlorothiazol-2-yl)-2-(4-(cyclopropylsulfonyl)-1H-pyrazol-1-yl)-3-(tetrahydro-2H-pyran-4-yl)propanamide], the EC50 was ≥ 15.8 µM. Also, the Emax under setting [1] is ≤ 90%.

For `NC(=O)c1ccc(NC(=O)[C@@H](CC2CCOCC2)n2ncc3c(S(=O)(=O)C4CC4)cccc32)nc1` [Compound 108, (R)-6-(2-(4-(cyclopropylsulfonyl)-1H-indazol-1-yl)-3-(tetrahydro-2H-pyran-4-yl)propanamido)nicotinamide], the EC50 was in the range of 3.98 to 12.6 µM. Under setting [2], the Emax is ≥ 111%.

Take `O=C(Nc1cnccn1)C(CC1CCOCC1)n1ncc2c(S(=O)(=O)C3CC3)ccnc21` (stereo not drawn) [Compound 97, 2-(4-(cyclopropylsulfonyl)-1H-pyrazolo[3,4-b]pyridin-1-yl)-N-(pyrazin-2-yl)-3-(tetrahydro-2H-pyran-4-yl)propanamide]: the EC50 fell in the range of 0.398 to 1.26 µM. The Emax under setting [1] is 106 to 110%.

As for `Cc1cc(NC(=O)C(CC2CCOCC2)n2ncc3c(S(=O)(=O)C4CC4)cccc32)nn1C` (stereo not drawn) [Compound 134, 2-(4-(cyclopropylsulfonyl)-1H-indazol-1-yl)-N-(1,5-dimethyl-1H-pyrazol-3-yl)-3-(tetrahydro-2H-pyran-4-yl)propanamide], the EC50 was in the range of 1.58 to 3.16 µM. The Emax under setting [1] is ≥ 111%.

As to `COC(=O)c1cnc(NC(=O)C(CC2CCCC2)n2cc(S(=O)(=O)C3CC3)cn2)s1` (stereo not drawn) [Compound 6, Methyl 2-(3-cyclopentyl-2-(4-(cyclopropylsulfonyl)-1H-pyrazol-1-yl)propanamido)thiazole-5-carboxylate], the EC50 fell in the range of 3.98 to 12.6 µM. The Emax under setting [1] is ≥ 111%.

Take `CC(C)(C)S(=O)(=O)c1cnn(C(CC2CCOCC2)C(=O)Nc2ncc(F)s2)c1` (stereo not drawn) [Compound 49, 2-(4-(tert-butylsulfonyl)-1H-pyrazol-1-yl)-N-(5-fluorothiazol-2-yl)-3-(tetrahydro-2H-pyran-4-yl)propanamide]: the EC50 lay within 3.98 to 12.6 µM. Moreover, under setting [1], the Emax is 90 to 100%.

As to `O=C(Nc1ncc(F)s1)C(CC1CCOCC1)n1ncc2c(S(=O)(=O)C3CC3)cccc21` (stereo not drawn) [Compound 66, 2-(4-(cyclopropylsulfonyl)-1H-indazol-1-yl)-N-(5-fluorothiazol-2-yl)-3-(tetrahydro-2H-pyran-4-yl)propanamide], the EC50 was ≤ 0.316 µM. For the same compound, the Emax under setting [1] was 101 to 105%.

Turning to `N#Cc1cnc(NC(=O)[C@H](CC2CCOCC2)n2ncc3c(S(=O)(=O)C4CC4)cccc32)s1` [Compound 136, (S)-N-(5-cyanothiazol-2-yl)-2-(4-(cyclopropylsulfonyl)-1H-indazol-1-yl)-3-(tetrahydro-2H-pyran-4-yl)propanamide], the EC50 lay in the range of 0.398 to 1.26 µM. Moreover, the Emax under setting [1] is ≥ 111%.

As to `COc1cc(S(=O)(=O)C2CC2)c2cnn(C(CC3CCOCC3)C(=O)Nc3cnccn3)c2c1` (stereo not drawn) [Compound 92, 2-(4-(cyclopropylsulfonyl)-6-methoxy-1H-indazol-1-yl)-N-(pyrazin-2-yl)-3-(tetrahydro-2H-pyran-4-yl)propanamide], the EC50 was in the range of 3.98 to 12.6 µM. Moreover, the Emax under setting [1] was ≤ 90%.

Turning to `O=C(Nc1ncc(F)s1)[C@H](CC1CCOCC1)n1cc(S(=O)(=O)C2CC2)cn1` [Compound 32, (S)-2-(4-(cyclopropylsulfonyl)-1H-pyrazol-1-yl)-N-(5-fluorothiazol-2-yl)-3-(tetrahydro-2H-pyran-4-yl)propanamide], the EC50 was in the range of 3.98 to 12.6 µM. For the same compound, under setting [1], the Emax was 101 to 105%.

Consider `O=C(Nc1cnccn1)[C@@H](CC1CCOCC1)n1ncc2c(S(=O)(=O)C3CC3)cccc21` [Compound 90, (R)-2-(4-(cyclopropylsulfonyl)-1H-indazol-1-yl)-N-(pyrazin-2-yl)-3-(tetrahydro-2H-pyran-4-yl)propanamide], for which the EC50 is ≥ 15.8 µM. The Emax under setting [1] was 90 to 100%.

Regarding `O=C(Nc1ncc(F)s1)[C@@H](CC1CCOCC1)n1cc(S(=O)(=O)C2CCCC2)cn1` [Compound 43, (R)-2-(4-(cyclopentylsulfonyl)-1H-pyrazol-1-yl)-N-(5-fluorothiazol-2-yl)-3-(tetrahydro-2H-pyran-4-yl)propanamide], the EC50 was ≥ 15.8 µM. Further, the Emax under setting [1] is ≤ 90%.

As to `O=C(Nc1cnccn1)C(CC1CCOCC1)n1ncc2c(S(=O)(=O)C3CC3)cccc21` (stereo not drawn) [Compound 65, 2-(4-(cyclopropylsulfonyl)-1H-indazol-1-yl)-N-(pyrazin-2-yl)-3-(tetrahydro-2H-pyran-4-yl)propanamide], the EC50 lay in the range of 0.398 to 1.26 µM. Moreover, the Emax under setting [1] is 90 to 100%.

As for `Nc1cc(S(=O)(=O)C2CC2)c2cnn(C(CC3CCOCC3)C(=O)Nc3ncc(F)s3)c2n1` (stereo not drawn) [Compound 16, 2-(6-amino-4-(cyclopropylsulfonyl)-1H-pyrazolo[3,4-b]pyridin-1-yl)-N-(5-fluorothiazol-2-yl)-3-(tetrahydro-2H-pyran-4-yl)propanamide], the EC50 was ≤ 0.316 µM. For the same compound, the Emax under setting [2] is 106 to 110%.

For the compound `Nc1cc(S(=O)(=O)C2CC2)c2cnn([C@@H](CC3CCOCC3)C(=O)Nc3ncc(F)s3)c2n1` [Compound 112, (S)-2-(6-amino-4-(cyclopropylsulfonyl)-1H-pyrazol[3,4-b]pyridin-1-yl)-N-(5-fluorothiazol-2-yl)-3-(tetrahydro-2H-pyran-4-yl)propanamide], the EC50 is ≤ 0.316 µM. Moreover, the Emax under setting [2] is 106 to 110%.

For `O=C(Nc1ncc(Cl)s1)[C@H](CC1CCOCC1)n1ncc2cc(S(=O)(=O)C3CC3)ccc21` [Compound 48, (S)-N-(5-chlorothiazol-2-yl)-2-(5-(cyclopropylsulfonyl)-1H-indazol-1-yl)-3-(tetrahydro-2H-pyran-4-yl)propanamide], the EC50 fell in the range of 0.398 to 1.26 µM. For the same compound, under setting [1], the Emax was ≥ 111%.

In the case of `O=C(Nc1ncc(Cl)s1)[C@@H](CC1CCOCC1)n1cc(S(=O)(=O)C2CCCC2)cn1` [Compound 58, (R)-N-(5-chlorothiazol-2-yl)-2-(4-(cyclopentylsulfonyl)-1H-pyrazol-1-yl)-3-(tetrahydro-2H-pyran-4-yl)propanamide], the EC50 was ≥ 15.8 µM. Further, under setting [1], the Emax is 101 to 105%.

With `N#Cc1cc(S(=O)(=O)C2CC2)c2cnn(C(CC3CCOCC3)C(=O)Nc3cnccn3)c2c1` (stereo not drawn) [Compound 100, 2-(6-cyano-4-(cyclopropylsulfonyl)-1H-indazol-1-yl)-N-(pyrazin-2-yl)-3-(tetrahydro-2H-pyran-4-yl)propanamide], the EC50 is 0.398 to 1.26 µM. In addition, the Emax under setting [1] is ≤ 90%.

The values are drawn from patent US8563730B2, “Pyrazole and fused pyrazole glucokinase activators” (Takeda San Diego, Inc., priority 2008, dated 2013).
